Measured values as given in patent publication US20240246954A1, “COMPOSITIONS AND METHODS FOR INHIBITING KRAS” (TheRas, Inc., priority 2021, published 2024).
Like-named read-outs stand apart in the source and are kept apart here.

How the values were obtained:
[1] = tested on: pERK in GP2d cells (KRAS G12D); experiment: Cell-based pERK HTRF assay; conditions: 60 min incubation
Method in brief: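 GP2d cells (DMEM, 10% FBS) treated 60 min with compounds in a 9-point half-log series from 1 μM top concentration, 0.25% DMSO. Lysates read for pERK by HTRF (d2/Eu cryptate antibodies) after 4–24 h at room temperature; emission at 615 nm.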

[2] = molecular target: T1, Avi-KRAS G12D (1-169) GppNHp/RAF1 RBD-3×FLAG (52-151) (Homo sapiens, UniProt P01116, G12D); experiment: HTRF Raf1-KRAS G12D-GppNHp disruption assay; type: biochemical; conditions: 1 h incubation
T1 construct: Avi-KRAS G12D (1-169) GppNHp
T1 sequence (P01116 1-169 isoform P01116-2 G12D limits assumed): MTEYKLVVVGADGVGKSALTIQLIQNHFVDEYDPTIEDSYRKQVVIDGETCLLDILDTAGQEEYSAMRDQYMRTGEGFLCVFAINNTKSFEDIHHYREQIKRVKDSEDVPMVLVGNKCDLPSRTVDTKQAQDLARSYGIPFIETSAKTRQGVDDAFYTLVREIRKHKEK
Method in brief: (§1)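 Compounds titrated from 100 μM in a 10-point series, incubated with protein mix 1 h at room temperature, then HTRF reagents a further 1 h. Time-resolved fluorescence read (excitation 320 nm, emission 615 nm); activity expressed as percentage of DMSO control.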

GDP KRAS G12D = GDP KRAS G12D (Homo sapiens, UniProt P01116, G12D); experiment: SPR binding affinity, GDP KRAS G12D; conditions: GDP-bound KRAS G12D
Chain of GDP KRAS G12D (P01116 1-188 isoform P01116-2 G12D): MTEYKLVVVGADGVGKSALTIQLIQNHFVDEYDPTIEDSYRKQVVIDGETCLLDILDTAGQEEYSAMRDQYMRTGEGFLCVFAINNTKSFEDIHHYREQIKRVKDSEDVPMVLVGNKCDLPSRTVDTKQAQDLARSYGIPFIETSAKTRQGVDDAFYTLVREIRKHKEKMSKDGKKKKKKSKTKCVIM

[3] = molecular target: T2, Avi-KRAS G12D/Q25A (1-169) GppNHp/3×FLAG-PI3KCA (157-299) (Homo sapiens, UniProt P01116, G12D/Q25A); experiment: HTRF PI3KCA-KRAS G12D/Q25A-GppNHp disruption assay; type: biochemical; conditions: 1 h incubation
T2 construct: Avi-KRAS G12D/Q25A (1-169) GppNHp
T2 sequence (P01116 1-169 isoform P01116-2 G12D/Q25A limits assumed): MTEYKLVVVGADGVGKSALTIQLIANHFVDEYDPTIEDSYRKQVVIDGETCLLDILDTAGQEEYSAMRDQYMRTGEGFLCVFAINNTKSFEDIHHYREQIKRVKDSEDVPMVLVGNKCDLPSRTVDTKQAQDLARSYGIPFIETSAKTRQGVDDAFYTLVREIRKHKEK
Method in brief: as §1

GppNHp KRAS G12D = GppNHp KRAS G12D (Homo sapiens, UniProt P01116, G12D); experiment: SPR binding affinity, GppNHp KRAS G12D; conditions: GppNHp-bound KRAS G12D
Chain of GppNHp KRAS G12D (P01116 1-188 isoform P01116-2 G12D): as the sequence (P01116 1-188 isoform P01116-2 G12D) above

Compound | IC50 ([1]; GP2d, 1 h) [nM] | IC50 [2] [nM] | Kd (GDP KRAS G12D) [nM] | IC50 [3] [nM] | Kd (GppNHp KRAS G12D) [nM] | IC50 ([1]; read-out: pERK-Gp2D-1hr) [nM]
Nc1nc2c(-c3c(C(F)(F)F)cc4c(N[C@@H]5CCNC5)nc(OC[C@@]56CCCN5C[C@H](F)C6)nc4c3F)ccc(F)c2s1 (atropisomer, axis not shown) [Compound 248] | > 1000 | ≤ 100 | ≤ 100 | 100 to 1000 | ≤ 100 | –
Nc1nc2c(-c3c(C(F)(F)F)cc4c(N[C@@H]5CCNC5)nc(OC[C@@]56CCCN5C[C@H](F)C6)nc4c3F)ccc(F)c2s1 (atropisomer, axis not shown) [Compound 249] | – | 1000 to 10000 | ≤ 100 | 10000 to 30000 | 1000 to 10000 | –
Nc1nc2c(-c3c(C(F)(F)F)cc4c(N5CC6CCC(C5)N6)nc(OC[C@@]56CCCN5C[C@H](F)C6)nc4c3F)ccc(F)c2s1 (single isomer, unassigned) [Compound 245] | ≤ 100 | ≤ 100 | ≤ 100 | ≤ 100 | ≤ 100 | –
Nc1nc2c(-c3c(C(F)(F)F)cc4c(N5CC6CCC(C5)N6)nc(OC[C@@]56CCCN5C[C@H](F)C6)nc4c3F)ccc(F)c2s1 (single isomer, unassigned) [Compound 246] | – | 1000 to 10000 | ≤ 100 | 1000 to 10000 | 1000 to 10000 | –
Nc1nc2c(-c3c(Cl)cc4c(N5CCNCC5)ncnc4c3F)ccc(F)c2s1 [Compound 1, 4-(6-chloro-8-fluoro-4-(piperazin-1-yl)quinazolin-7-yl)-7-fluorobenzo[d]thiazol-2-amine] | – | 10000 to 30000 | 1000 to 10000 | 10000 to 30000 | 10000 to 30000 | –
NCCNc1ncnc2c(F)c(-c3ccc(F)c4sc(N)nc34)c(Cl)cc12 [Compound 5, N^1-(7-(2-amino-7-fluorobenzo[d]thiazol-4-yl)-6-chloro-8-fluoroquinazolin-4-yl)ethane-1,2-diamine] | – | 10000 to 30000 | 1000 to 10000 | 10000 to 30000 | 10000 to 30000 | –
N#CC[C@H]1CN(c2ncnc3c(F)c(-c4ccc(F)c5sc(N)nc45)c(Cl)cc23)CCN1C(=O)CN [Compound 29] | – | 10000 to 30000 | 1000 to 10000 | 10000 to 30000 | 10000 to 30000 | –
CN(C)C1CN(c2nc(NCCN)c3cc(Cl)c(-c4ccc(F)c5sc(N)nc45)c(F)c3n2)C1 [Compound 46, N^1-(7-(2-amino-7-fluorobenzo[d]thiazol-4-yl)-6-chloro-2-(3-(dimethylamino)azetidin-1-yl)-8-fluoroquinazolin-4-yl)ethane-1,2-diamine] | – | 10000 to 30000 | 1000 to 10000 | 10000 to 30000 | 10000 to 30000 | –
CN(C)C1CN(c2nc(N3CCNCC3)c3cc(Cl)c(-c4ccc(F)c5sc(N)nc45)c(F)c3n2)C1 [Compound 47] | – | 10000 to 30000 | 1000 to 10000 | 10000 to 30000 | 10000 to 30000 | –
CN1CCC[C@H]1COc1nc(NCCN)c2cc(Cl)c(-c3ccc(F)c4sc(N)nc34)c(F)c2n1 [Compound 49] | – | 1000 to 10000 | ≤ 100 | 1000 to 10000 | 1000 to 10000 | –
CN1CCC[C@H]1COc1nc(N2CCN(C(=O)CN)[C@@H](CC#N)C2)c2cc(Cl)c(-c3ccc(F)c4sc(N)nc34)c(F)c2n1 [Compound 54] | – | 1000 to 10000 | 100 to 1000 | 1000 to 10000 | 1000 to 10000 | –
CN1CCC[C@H]1COc1nc(NC2CNC2)c2cc(Cl)c(-c3ccc(F)c4sc(N)nc34)c(F)c2n1 [Compound 55, 4-(4-(azetidin-3-ylamino)-6-chloro-8-fluoro-2-(((S)-1-methylpyrrolidin-2-yl)methoxy)quinazolin-7-yl)-7-fluorobenzo[d]thiazol-2-amine] | – | 1000 to 10000 | ≤ 100 | 1000 to 10000 | 1000 to 10000 | –
CN1CCC[C@H]1COc1nc(N2CCN[C@@H](CC#N)C2)c2cc(Cl)c(-c3ccc(F)c4sc(N)nc34)c(F)c2n1 [Compound 56] | – | 10000 to 30000 | 100 to 1000 | 10000 to 30000 | 10000 to 30000 | –
Nc1nc2c(-c3c(Cl)cc4c(NC5CNC5)nc(OCC56CCCN5CCC6)nc4c3F)ccc(F)c2s1 [Compound 89] | – | 1000 to 10000 | – | 1000 to 10000 | 100 to 1000 | –
Nc1nc2c(-c3c(C(F)(F)F)cc4c(NC5CNC5)nc(OCC56CCCN5CCC6)nc4c3F)ccc(F)c2s1 [Compound 120] | > 1000 | 100 to 1000 | ≤ 100 | 100 to 1000 | ≤ 100 | –
Nc1nc2c(-c3c(Cl)cc4c(N5CC6CCC(C5)N6)nc(OCC56CCCN5CCC6)nc4c3F)ccc(F)c2s1 [Compound 157, 4-(4-(3,8-diazabicyclo[3.2.1]octan-3-yl)-6-chloro-8-fluoro-2-((tetrahydro-1H-pyrrolizin-7a(5H)-yl)methoxy)quinazolin-7-yl)-7-fluorobenzo[d]thiazol-2-amine] | 100 to 1000 | 100 to 1000 | ≤ 100 | 100 to 1000 | ≤ 100 | –
Nc1nc2c(-c3c(C(F)(F)F)cc4c(N5CC6CCC(C5)N6)nc(OCC56CCCN5CCC6)nc4c3F)ccc(F)c2s1 [Compound 158, 4-(4-(3,8-diazabicyclo[3.2.1]octan-3-yl)-8-fluoro-2-((tetrahydro-1H-pyrrolizin-7a(5H)-yl)methoxy)-6-(trifluoromethyl)quinazolin-7-yl)-7-fluorobenzo[d]thiazol-2-amine] | ≤ 100 | 100 to 1000 | ≤ 100 | 100 to 1000 | ≤ 100 | –
Nc1nc2c(-c3c(C(F)(F)F)cc4c(N5CC6CCC(C5)N6)nc(OC[C@@]56CCCN5C[C@H](F)C6)nc4c3F)ccc(F)c2s1 [Compound 219, 4-(4-(3,8-diazabicyclo[3.2.1]octan-3-yl)-8-fluoro-2-(((2R,7aS)-2-fluorotetrahydro-1H-pyrrolizin-7a(5H)-yl)methoxy)-6-(trifluoromethyl)quinazolin-7-yl)-7-fluorobenzo[d]thiazol-2-amine] | ≤ 100 | ≤ 100 | ≤ 100 | 100 to 1000 | ≤ 100 | –
CN1C2CCC1CN(c1nc(OC[C@@]34CCCN3C[C@H](F)C4)nc3c(F)c(-c4ccc(F)c5sc(N)nc45)c(C(F)(F)F)cc13)C2 [Compound 221] | 100 to 1000 | 1000 to 10000 | ≤ 100 | 1000 to 10000 | 1000 to 10000 | –
Nc1nc2c(-c3c(C(F)(F)F)cc4c(N5CC6CC5CN6)nc(OC[C@@]56CCCN5C[C@H](F)C6)nc4c3F)ccc(F)c2s1 (stereo partly drawn) [Compound 241] | – | 100 to 1000 | ≤ 100 | 100 to 1000 | ≤ 100 | ≤ 100
N#Cc1c(N)sc2c(F)ccc(-c3c(C(F)(F)F)cc4c(N5C[C@H]6CC[C@@H](C5)N6)nc(OC[C@@]56CCCN5C[C@H](F)C6)nc4c3F)c12 [Compound 255, 4-(4-((1R,5S)-3,8-diazabicyclo[3.2.1]octan-3-yl)-8-fluoro-2-(((2R,7aS)-2-fluorotetrahydro-1H-pyrrolizin-7a(5H)-yl)methoxy)-6-(trifluoromethyl)quinazolin-7-yl)-2-amino-7-fluorobenzo[b]thiophene-3-carbonitrile] | ≤ 100 | ≤ 100 | ≤ 100 | 100 to 1000 | ≤ 100 | –
N#Cc1c(N)sc2c(F)ccc(-c3c(Cl)cc4c(N5C[C@H]6CC[C@@H](C5)N6)nc(OC[C@@]56CCCN5C[C@H](F)C6)nc4c3F)c12 [Compound 260, 4-(4-((1R,5S)-3,8-diazabicyclo[3.2.1]octan-3-yl)-6-chloro-8-fluoro-2-(((2R,7aS)-2-fluorotetrahydro-1H-pyrrolizin-7a(5H)-yl)methoxy)quinazolin-7-yl)-2-amino-7-fluorobenzo[b]thiophene-3-carbonitrile] | ≤ 100 | ≤ 100 | ≤ 100 | 100 to 1000 | ≤ 100 | –
CN(c1nc(OC[C@@]23CCCN2C[C@H](F)C3)nc2c(F)c(-c3ccc(F)c4sc(N)nc34)c(C(F)(F)F)cc12)C1C2C[C@H]1CN2 (stereo partly drawn) [Compound 289] | – | 100 to 1000 | ≤ 100 | 100 to 1000 | 100 to 1000 | –
CN(c1nc(OC[C@@]23CCCN2C[C@H](F)C3)nc2c(F)c(-c3ccc(F)c4sc(N)nc34)c(C(F)(F)F)cc12)[C@H]1CNC[C@H]1F [Compound 290] | ≤ 100 | 100 to 1000 | ≤ 100 | 100 to 1000 | 100 to 1000 | –
N#Cc1c(N)sc2c(F)ccc(-c3c(C(F)F)cc4c(N5C[C@H]6CC[C@@H](C5)N6)nc(OC[C@@]56CCCN5C[C@H](F)C6)nc4c3F)c12 [Compound 301, 4-(4-((1R,5S)-3,8-diazabicyclo[3.2.1]octan-3-yl)-6-(difluoromethyl)-8-fluoro-2-(((2R,7aS)-2-fluorotetrahydro-1H-pyrrolizin-7a(5H)-yl)methoxy)quinazolin-7-yl)-2-amino-7-fluorobenzo[b]thiophene-3-carbonitrile] | ≤ 100 | 100 to 1000 | ≤ 100 | 100 to 1000 | ≤ 100 | –
